What all share (type): functional, cell-based
Common to all, as to settings: pig, llc-pk1, 50 µM

Series [1] addresses T1, ATP-dependent translocase ABCB1 (Homo sapiens, UniProt P08183). The series can be described thus: TP_TRANSPORTER: inhibition of Digoxin transepithelial transport (basal to apical)(Digoxin: 0.1 uM, Atenolol: 50 uM) in MDR1-expressing LLC-PK1 cells.
The target of series [2] is T1, ATP-dependent translocase ABCB1. The series can be described thus: TP_TRANSPORTER: inhibition of Digoxin transepithelial transport (basal to apical)(Digoxin: 0.1 uM, Candesartan cilexetil: 50 uM) in MDR1-expressing LLC-PK1 cells.
Series [3] shares this target. The series is described as follows: TP_TRANSPORTER: inhibition of Digoxin transepithelial transport (basal to apical)(Digoxin: 0.1 uM, Candesartan: 50 uM) in MDR1-expressing LLC-PK1 cells.
For series [4] the target is unchanged. The series is described as follows: TP_TRANSPORTER: inhibition of Digoxin transepithelial transport (basal to apical)(Digoxin: 0.1 uM, Captopril: 50 uM) in MDR1-expressing LLC-PK1 cells.
The target is the same in series [5]. The series can be described thus: TP_TRANSPORTER: inhibition of Digoxin transepithelial transport (basal to apical)(Digoxin: 0.1 uM, Carvedilol: 50 uM) in MDR1-expressing LLC-PK1 cells.
The target is the same in series [6]. The series can be described thus: TP_TRANSPORTER: inhibition of Digoxin transepithelial transport (basal to apical)(Digoxin: 0.1 uM, Cilazaprilat: 50 uM) in MDR1-expressing LLC-PK1 cells.
The target is the same in series [7]. The series can be described thus: TP_TRANSPORTER: inhibition of Digoxin transepithelial transport (basal to apical)(Digoxin: 0.1 uM, Cilazapril: 50 uM) in MDR1-expressing LLC-PK1 cells.
Series [8] has the same target. The series can be described thus: TP_TRANSPORTER: inhibition of Digoxin transepithelial transport (basal to apical)(Digoxin: 0.1 uM, Delapril: 50 uM) in MDR1-expressing LLC-PK1 cells.
For series [9] the target is unchanged. The series is described as follows: TP_TRANSPORTER: inhibition of Digoxin transepithelial transport (basal to apical)(Digoxin: 0.1 uM, Doxazosin: 50 uM) in MDR1-expressing LLC-PK1 cells.
The target is the same in series [10]. The series is described as follows: TP_TRANSPORTER: inhibition of Digoxin transepithelial transport (basal to apical)(Digoxin: 0.1 uM, Enalapril: 50 uM) in MDR1-expressing LLC-PK1 cells.
For series [11] the target is unchanged. The series is described as follows: TP_TRANSPORTER: inhibition of Digoxin transepithelial transport (basal to apical) (Digoxin: 0.1 uM, Lisinopril: 50 uM) in MDR1-expressing LLC-PK1 cells.
For series [12] the target is unchanged. The series is described as follows: TP_TRANSPORTER: inhibition of Digoxin transepithelial transport (basal to apical) (Digoxin: 0.1 uM, Losartan: 50 uM) in MDR1-expressing LLC-PK1 cells.
The target is the same in series [13]. The series can be described thus: TP_TRANSPORTER: inhibition of Digoxin transepithelial transport (basal to apical)(Digoxin: 0.1 uM, Metprolol: 50 uM) in MDR1-expressing LLC-PK1 cells.
For series [14] the target is unchanged. The series is described as follows: TP_TRANSPORTER: inhibition of Digoxin transepithelial transport (basal to apical) (Digoxin: 0.1 uM, Perindoprilat: 50 uM) in MDR1-expressing LLC-PK1 cells.
Series [15] has the same target. The series is described as follows: TP_TRANSPORTER: inhibition of Digoxin transepithelial transport (basal to apical) (Digoxin: 0.1 uM, Perindopril: 50 uM) in MDR1-expressing LLC-PK1 cells.
The target is the same in series [16]. The series can be described thus: TP_TRANSPORTER: inhibition of Digoxin transepithelial transport (basal to apical)(Digoxin: 0.1 uM, Temocaprilat: 50 uM) in MDR1-expressing LLC-PK1 cells.
Series [17] has the same target. The series can be described thus: TP_TRANSPORTER: inhibition of Digoxin transepithelial transport (basal to apical)(Digoxin: 0.1 uM, Temocapril: 50 uM) in MDR1-expressing LLC-PK1 cells.

The structures appear in SMILES notation.

T1 sequence (P08183 whole entry): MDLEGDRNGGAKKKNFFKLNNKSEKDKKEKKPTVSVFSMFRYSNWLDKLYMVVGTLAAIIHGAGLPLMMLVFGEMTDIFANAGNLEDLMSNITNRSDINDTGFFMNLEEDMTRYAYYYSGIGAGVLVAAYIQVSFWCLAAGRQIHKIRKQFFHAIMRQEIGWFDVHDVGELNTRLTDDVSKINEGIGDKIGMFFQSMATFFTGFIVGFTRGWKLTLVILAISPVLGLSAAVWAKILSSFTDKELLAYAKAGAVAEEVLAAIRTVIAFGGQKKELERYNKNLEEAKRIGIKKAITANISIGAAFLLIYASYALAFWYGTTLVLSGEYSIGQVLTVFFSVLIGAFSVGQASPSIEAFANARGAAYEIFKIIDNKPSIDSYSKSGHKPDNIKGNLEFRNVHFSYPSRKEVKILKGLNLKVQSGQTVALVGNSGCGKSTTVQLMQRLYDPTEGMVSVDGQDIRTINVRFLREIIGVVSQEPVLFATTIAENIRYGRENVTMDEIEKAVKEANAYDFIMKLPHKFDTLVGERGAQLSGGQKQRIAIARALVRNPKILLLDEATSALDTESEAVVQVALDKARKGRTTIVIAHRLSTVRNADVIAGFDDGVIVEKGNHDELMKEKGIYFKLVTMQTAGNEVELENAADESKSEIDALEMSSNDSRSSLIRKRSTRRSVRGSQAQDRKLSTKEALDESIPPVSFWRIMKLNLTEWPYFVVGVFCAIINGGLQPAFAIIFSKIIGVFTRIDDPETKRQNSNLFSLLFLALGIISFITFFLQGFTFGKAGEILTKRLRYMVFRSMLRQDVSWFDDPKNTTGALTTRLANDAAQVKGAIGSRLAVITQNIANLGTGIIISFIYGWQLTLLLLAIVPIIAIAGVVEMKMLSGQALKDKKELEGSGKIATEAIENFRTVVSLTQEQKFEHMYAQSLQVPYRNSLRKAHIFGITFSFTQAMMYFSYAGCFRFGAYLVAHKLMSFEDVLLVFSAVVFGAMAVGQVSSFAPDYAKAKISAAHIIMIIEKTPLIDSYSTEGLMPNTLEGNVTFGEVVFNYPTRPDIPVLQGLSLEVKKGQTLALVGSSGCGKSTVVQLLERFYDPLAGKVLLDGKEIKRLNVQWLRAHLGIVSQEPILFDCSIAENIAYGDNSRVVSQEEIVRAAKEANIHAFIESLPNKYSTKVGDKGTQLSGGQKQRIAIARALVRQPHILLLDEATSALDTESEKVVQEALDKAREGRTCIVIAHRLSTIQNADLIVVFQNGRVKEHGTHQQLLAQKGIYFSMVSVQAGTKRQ

On to `CC(C)NCC(O)COc1ccc(CC(N)=O)cc1` (configuration not stated) [ATENOLOL], for which, in series [1], the Activity result is “is not an inhibitor [-]”.

Turning to `CCOc1nc2cccc(C(=O)OC(C)OC(=O)OC3CCCCC3)c2n1Cc1ccc(-c2ccccc2-c2nnn[nH]2)cc1` (configuration not stated) [CANDESARTAN CILEXETIL], in series [2], the Activity result was “is not an inhibitor [-]”. On to `CCOc1nc2cccc(C(=O)O)c2n1Cc1ccc(-c2ccccc2-c2nnn[nH]2)cc1` [CANDESARTAN], for which the Activity entry in [3] is “is not an inhibitor [-]”. With `C[C@H](CS)C(=O)N1CCC[C@H]1C(=O)O` [CAPTOPRIL], in [4], the Activity result is “is not an inhibitor [-]”. Take `COc1ccccc1OCCNCC(O)COc1cccc2[nH]c3ccccc3c12` (configuration not stated) [CARVEDILOL]: the Activity result in series [5] is “inhibitor [+]”. With `O=C(O)[C@H](CCc1ccccc1)N[C@H]1CCCN2CCC[C@@H](C(=O)O)N2C1=O` [CILAZAPRILAT], the Activity result in series [6] is “is not an inhibitor [-]”. On to `CCOC(=O)[C@H](CCc1ccccc1)N[C@H]1CCCN2CCC[C@@H](C(=O)O)N2C1=O` [CILAZAPRIL], for which the Activity result in series [7] was “is not an inhibitor [-]”. For `CCOC(=O)[C@H](CCc1ccccc1)N[C@@H](C)C(=O)N(CC(=O)O)C1Cc2ccccc2C1` [DELAPRIL], in series [8], the Activity result was “is not an inhibitor [-]”. `COc1cc2nc(N3CCN(C(=O)C4COc5ccccc5O4)CC3)nc(N)c2cc1OC` (configuration not stated) [DOXAZOSIN]: in [9], the Activity result is “inhibitor [+]”. For the molecule `CCOC(=O)[C@H](CCc1ccccc1)N[C@@H](C)C(=O)N1CCC[C@H]1C(=O)O` [ENALAPRIL], in [10], the Activity result was “is not an inhibitor [-]”.

Regarding `NCCCC[C@H](N[C@@H](CCc1ccccc1)C(=O)O)C(=O)N1CCC[C@H]1C(=O)O` [LISINOPRIL ANHYDROUS], in series [11], the Activity result was “is not an inhibitor [-]”. Consider `CCCCc1nc(Cl)c(CO)n1Cc1ccc(-c2ccccc2-c2nn[nH]n2)cc1` [LOSARTAN], for which the Activity entry in series [12] was “is not an inhibitor [-]”.

Turning to `COCCc1ccc(OCC(O)CNC(C)C)cc1` (configuration not stated) [METOPROLOL], the Activity result in [13] is “is not an inhibitor [-]”. Regarding `CCC[C@H](N[C@@H](C)C(=O)N1[C@H](C(=O)O)C[C@@H]2CCCC[C@@H]21)C(=O)O` [PERINDOPRILAT], in series [14], the Activity result was “is not an inhibitor [-]”.

`CCC[C@H](N[C@@H](C)C(=O)N1[C@H](C(=O)O)C[C@@H]2CCCC[C@@H]21)C(=O)OCC` [PERINDOPRIL]: in [15], the Activity entry is “is not an inhibitor [-]”. For `O=C(O)CN1C[C@@H](c2cccs2)SC[C@H](N[C@@H](CCc2ccccc2)C(=O)O)C1=O` [TEMOCAPRILAT], the Activity entry in series [16] was “is not an inhibitor [-]”. As for `CCOC(=O)[C@H](CCc1ccccc1)N[C@H]1CS[C@H](c2cccs2)CN(CC(=O)O)C1=O` [TEMOCAPRIL], in series [17], the Activity entry is “is not an inhibitor [-]”.
